Laboratory results reported in patent US20100099561A1, “HETEROBICYCLIC ALKYLTHIO-BRIDGED ISOXAZOLINES” (E.I. DU PONT DE NEMOURS AND COMPANY, priority 2008, published 2010).

Experiments:
Type in all cases: in vivo
Conditions in all cases: 21 days, scale 0 to 100
[1] = system: deadnettle (henbit deadnettle, Lamium amplexicaule); assay: Test C preemergence, deadnettle
Source text: (§1) Seeds of plant species selected from annual bluegrass (Poa annua), blackgrass (Alopecurus myosuroides), canarygrass (Phalaris minor), gallium, (catchweed bedstraw, Galium aparine), chickweed (Stellaria media), downy bromegrass (Bromus tectorum), field poppy (Papaver rhoeas), field violet (Viola arvensis), green foxtail (Setaria viridis), deadnettle (henbit deadnettle, Lamium amplexicaule), Italian ryegrass (Lolium multiflorum), kochia (Kochia scoparia), lambsquarters (Chenopodium album), oilseed rape (Brassica napus), pigweed (Amaranthus retroflexus), Russian thistle (Salsola kali), spring barley (Hordeum vulgare), spring wheat (Triticum aestivum), wild buckwheat (Polygonum convolvulus), wild mustard (Sinapis arvensis), wild oat (Avena fatua), wild radish (Raphanus raphanistrum), windgrass (Apera spica-venti), winter barley (Hordeum vulgare), and winter wheat (Triticum aestivum) were planted and treated preemergence with test chemicals formulated in a non-phytotoxic solvent mixture which included a surfactant.
(§2) Treated plants and controls were maintained in a controlled growth environment for 21 days after which time all species were compared to controls and visually evaluated. Plant response ratings, summarized in Table C, are based on a scale of 0 to 100 where 0 is no effect and 100 is complete control. A dash (-) response means no test result.

[2] = system: Italian ryegrass (Lolium multiflorum); assay: Test C preemergence, Italian ryegrass
Source text: as §1, §2

[3] = system: blackgrass (Alopecurus myosuroides); assay: Test C preemergence, blackgrass
Source text: as §1, §2

[4] = system: windgrass (Apera spica-venti); assay: Test C preemergence, windgrass
Source text: as §1, §2

[5] = system: wild radish (Raphanus raphanistrum); assay: Test C preemergence, wild radish
Source text: as §1, §2

[6] = system: annual bluegrass (Poa annua); assay: Test C preemergence, annual bluegrass
Source text: as §1, §2

[7] = system: spring wheat (Triticum aestivum); assay: Test C preemergence, spring wheat
Source text: as §1, §2

[8] = system: oilseed rape (Brassica napus); assay: Test C preemergence, oilseed rape
Source text: as §1, §2

[9] = system: lambsquarters (Chenopodium album); assay: Test C preemergence, lambsquarters
Source text: as §1, §2

[10] = system: spring barley (Hordeum vulgare); assay: Test C preemergence, spring barley
Source text: as §1, §2

[11] = system: green foxtail (Setaria viridis); assay: Test C preemergence, green foxtail
Source text: as §1, §2

kochia (Kochia scoparia) = assay: Test C preemergence, kochia
Source text: as §1, §2

[12] = system: Russian thistle (Salsola kali); assay: Test C preemergence, Russian thistle
Source text: as §1, §2

[13] = system: field violet (Viola arvensis); assay: Test C preemergence, field violet
Source text: as §1, §2

[14] = system: winter wheat (Triticum aestivum); assay: Test C preemergence, winter wheat
Source text: as §1, §2

[15] = system: wild buckwheat (Polygonum convolvulus); assay: Test C preemergence, wild buckwheat
Source text: as §1, §2

In the case of `CC1(C)CC(S(=O)(=O)Cc2c(C(F)(F)F)nc3n(c2=O)CCS3)=NO1` [Compound 6], the “Plant response rating, Deadnettle” value ([1]; 31 g ai/ha) is reported as 0, the “Plant response rating, Deadnettle” value ([1]; 62 g ai/ha) is reported as 0 and the “Plant response rating, Deadnettle” value ([1]; 125 g ai/ha) is reported as 0. The “Plant response rating, Deadnettle” value ([1]; 250 g ai/ha) was 0, the “Plant response rating, Ryegrass, Italian” value ([2]; 31 g ai/ha) was 0 and the “Plant response rating, Ryegrass, Italian” value ([2]; 62 g ai/ha) was 15. The “Plant response rating, Ryegrass, Italian” value ([2]; 125 g ai/ha) was 15, the “Plant response rating, Ryegrass, Italian” value ([2]; 250 g ai/ha) was 95 and the “Plant response rating, Blackgrass” value ([3]; 125 g ai/ha) was 98. For the same molecule, the “Plant response rating, Windgrass” value ([4]; 125 g ai/ha) was 20, the “Plant response rating, Radish, Wild” value ([5]; 31 g ai/ha) was 0 and the “Plant response rating, Radish, Wild” value ([5]; 62 g ai/ha) was 0. The “Plant response rating, Radish, Wild” value ([5]; 125 g ai/ha) was 0, the “Plant response rating, Radish, Wild” value ([5]; 250 g ai/ha) was 0 and the “Plant response rating, Bluegrass” value ([6]; 31 g ai/ha) was 20. For the same molecule, the “Plant response rating, Bluegrass” value ([6]; 62 g ai/ha) was 20, the “Plant response rating, Bluegrass” value ([6]; 125 g ai/ha) was 20 and the “Plant response rating, Bluegrass” value ([6]; 250 g ai/ha) was 90. For the same molecule, the “Plant response rating, Wheat, Spring” value ([7]; 31 g ai/ha) was 0, the “Plant response rating, Wheat, Spring” value ([7]; 62 g ai/ha) was 0 and the “Plant response rating, Wheat, Spring” value ([7]; 125 g ai/ha) was 0. The “Plant response rating, Wheat, Spring” value ([7]; 250 g ai/ha) was 15, the “Plant response rating, Oilseed Rape” value ([8]; 31 g ai/ha) was 0 and the “Plant response rating, Oilseed Rape” value ([8]; 62 g ai/ha) was 0. For the same molecule, the “Plant response rating, Oilseed Rape” value ([8]; 125 g ai/ha) was 0, the “Plant response rating, Oilseed Rape” value ([8]; 250 g ai/ha) was 0 and the “Plant response rating, Lambsquarters” value ([9]; 31 g ai/ha) was 0. The “Plant response rating, Lambsquarters” value ([9]; 62 g ai/ha) was 0, the “Plant response rating, Lambsquarters” value ([9]; 125 g ai/ha) was 0 and the “Plant response rating, Lambsquarters” value ([9]; 250 g ai/ha) was 35. For the same molecule, the “Plant response rating, Barley, Spring” value ([10]; 31 g ai/ha) was 20, the “Plant response rating, Barley, Spring” value ([10]; 62 g ai/ha) was 20 and the “Plant response rating, Barley, Spring” value ([10]; 125 g ai/ha) was 20. The “Plant response rating, Barley, Spring” value ([10]; 250 g ai/ha) was 20, the “Plant response rating, Foxtail, Green” value ([11]; 125 g ai/ha) was 20 and the “Plant response rating, Kochia” value (kochia (Kochia scoparia); 31 g ai/ha) was 0. For the same molecule, the “Plant response rating, Kochia” value (kochia (Kochia scoparia); 62 g ai/ha) was 0, the “Plant response rating, Kochia” value (kochia (Kochia scoparia); 125 g ai/ha) was 0 and the “Plant response rating, Kochia” value (kochia (Kochia scoparia); 250 g ai/ha) was 0. For the same molecule, the “Plant response rating, Russian Thistle” value ([12]; 31 g ai/ha) was 0, the “Plant response rating, Russian Thistle” value ([12]; 62 g ai/ha) was 0 and the “Plant response rating, Russian Thistle” value ([12]; 125 g ai/ha) was 0. The “Plant response rating, Field Violet” value ([13]; 31 g ai/ha) was 0, the “Plant response rating, Field Violet” value ([13]; 62 g ai/ha) was 0 and the “Plant response rating, Field Violet” value ([13]; 125 g ai/ha) was 0. For the same molecule, the “Plant response rating, Field Violet” value ([13]; 250 g ai/ha) was 0, the “Plant response rating, Wheat, Winter” value ([14]; 31 g ai/ha) was 0 and the “Plant response rating, Wheat, Winter” value ([14]; 62 g ai/ha) was 0. The “Plant response rating, Wheat, Winter” value ([14]; 125 g ai/ha) was 0, the “Plant response rating, Wheat, Winter” value ([14]; 250 g ai/ha) was 20 and the “Plant response rating, Buckwheat, Wild” value ([15]; 31 g ai/ha) was 0. The “Plant response rating, Buckwheat, Wild” value ([15]; 62 g ai/ha) was 0, the “Plant response rating, Buckwheat, Wild” value ([15]; 125 g ai/ha) was 0 and the “Plant response rating, Buckwheat, Wild” value ([15]; 250 g ai/ha) was 0.
With `CC1(C)CC(S(=O)(=O)Cc2c(C(F)(F)F)nc3n(c2=O)CCCC3)=NO1` [Compound 8, 3-[[(4,5-dihydro-5,5-dimethyl-3-isoxazolyl)sulfonyl]methyl]-6,7,8,9-tetrahydro-2-(trifluoromethyl)-4H-pyrido[1,2-α]pyrimidin-4-one] the “Plant response rating, Deadnettle” value ([1]; 16 g ai/ha) was 0, the “Plant response rating, Deadnettle” value ([1]; 31 g ai/ha) was 0 and the “Plant response rating, Deadnettle” value ([1]; 62 g ai/ha) was 0. For the same molecule, the “Plant response rating, Deadnettle” value ([1]; 125 g ai/ha) was 0, the “Plant response rating, Ryegrass, Italian” value ([2]; 16 g ai/ha) was 0 and the “Plant response rating, Ryegrass, Italian” value ([2]; 31 g ai/ha) was 0. For the same molecule, the “Plant response rating, Ryegrass, Italian” value ([2]; 62 g ai/ha) was 0, the “Plant response rating, Ryegrass, Italian” value ([2]; 125 g ai/ha) was 0 and the “Plant response rating, Blackgrass” value ([3]; 16 g ai/ha) was 0. For the same molecule, the “Plant response rating, Blackgrass” value ([3]; 31 g ai/ha) was 0, the “Plant response rating, Blackgrass” value ([3]; 62 g ai/ha) was 20 and the “Plant response rating, Blackgrass” value ([3]; 125 g ai/ha) was 35. The “Plant response rating, Windgrass” value ([4]; 16 g ai/ha) was 0, the “Plant response rating, Windgrass” value ([4]; 31 g ai/ha) was 0 and the “Plant response rating, Windgrass” value ([4]; 62 g ai/ha) was 35. The “Plant response rating, Windgrass” value ([4]; 125 g ai/ha) was 90, the “Plant response rating, Bluegrass” value ([6]; 16 g ai/ha) was 0 and the “Plant response rating, Bluegrass” value ([6]; 31 g ai/ha) was 0. For the same molecule, the “Plant response rating, Bluegrass” value ([6]; 62 g ai/ha) was 0, the “Plant response rating, Bluegrass” value ([6]; 125 g ai/ha) was 0 and the “Plant response rating, Wheat, Spring” value ([7]; 16 g ai/ha) was 0. The “Plant response rating, Wheat, Spring” value ([7]; 31 g ai/ha) was 0, the “Plant response rating, Wheat, Spring” value ([7]; 62 g ai/ha) was 0 and the “Plant response rating, Wheat, Spring” value ([7]; 125 g ai/ha) was 0. For the same molecule, the “Plant response rating, Oilseed Rape” value ([8]; 16 g ai/ha) was 0, the “Plant response rating, Oilseed Rape” value ([8]; 31 g ai/ha) was 0 and the “Plant response rating, Oilseed Rape” value ([8]; 62 g ai/ha) was 0. The “Plant response rating, Oilseed Rape” value ([8]; 125 g ai/ha) was 0, the “Plant response rating, Lambsquarters” value ([9]; 16 g ai/ha) was 0 and the “Plant response rating, Lambsquarters” value ([9]; 31 g ai/ha) was 0. For the same molecule, the “Plant response rating, Lambsquarters” value ([9]; 62 g ai/ha) was 0, the “Plant response rating, Lambsquarters” value ([9]; 125 g ai/ha) was 0 and the “Plant response rating, Barley, Spring” value ([10]; 16 g ai/ha) was 0. The “Plant response rating, Barley, Spring” value ([10]; 31 g ai/ha) was 0, the “Plant response rating, Barley, Spring” value ([10]; 62 g ai/ha) was 0 and the “Plant response rating, Barley, Spring” value ([10]; 125 g ai/ha) was 0. For the same molecule, the “Plant response rating, Foxtail, Green” value ([11]; 16 g ai/ha) was 0, the “Plant response rating, Foxtail, Green” value ([11]; 31 g ai/ha) was 0 and the “Plant response rating, Foxtail, Green” value ([11]; 62 g ai/ha) was 15. The “Plant response rating, Foxtail, Green” value ([11]; 125 g ai/ha) was 60, the “Plant response rating, Kochia” value (kochia (Kochia scoparia); 16 g ai/ha) was 0 and the “Plant response rating, Kochia” value (kochia (Kochia scoparia); 31 g ai/ha) was 0. The “Plant response rating, Kochia” value (kochia (Kochia scoparia); 62 g ai/ha) was 0, the “Plant response rating, Kochia” value (kochia (Kochia scoparia); 125 g ai/ha) was 0 and the “Plant response rating, Russian Thistle” value ([12]; 16 g ai/ha) was 0. The “Plant response rating, Russian Thistle” value ([12]; 31 g ai/ha) was 0, the “Plant response rating, Russian Thistle” value ([12]; 62 g ai/ha) was 0 and the “Plant response rating, Russian Thistle” value ([12]; 125 g ai/ha) was 0. For the same molecule, the “Plant response rating, Field Violet” value ([13]; 16 g ai/ha) was 0, the “Plant response rating, Field Violet” value ([13]; 31 g ai/ha) was 0 and the “Plant response rating, Field Violet” value ([13]; 62 g ai/ha) was 0. The “Plant response rating, Field Violet” value ([13]; 125 g ai/ha) was 90, the “Plant response rating, Wheat, Winter” value ([14]; 16 g ai/ha) was 0 and the “Plant response rating, Wheat, Winter” value ([14]; 31 g ai/ha) was 0. For the same molecule, the “Plant response rating, Wheat, Winter” value ([14]; 62 g ai/ha) was 0, the “Plant response rating, Wheat, Winter” value ([14]; 125 g ai/ha) was 0 and the “Plant response rating, Buckwheat, Wild” value ([15]; 16 g ai/ha) was 0. The “Plant response rating, Buckwheat, Wild” value ([15]; 31 g ai/ha) was 0 and the “Plant response rating, Buckwheat, Wild” value ([15]; 62 g ai/ha) was 0.
